# Values quoted from earlier work as cited in US20120213707A1, “Riboflavin Based Aerosol and Use as Placebo in Trials” (MPEX PHARMACEUTICALS, INC., priority 2009, published 2012).
# System: men and women with a history of recurrent migraine headaches
# Conditions: cited from earlier work
smiles,measurement,setting,value
Cc1cc2nc3c(=O)[nH]c(=O)nc-3n(C[C@H](O)[C@H](O)[C@H](O)CO)c2cc1C [riboflavin],median migraine attack frequency,"400 mg of riboflavin daily for three months, 23 patients, Boehnke 2004",reduction in median migraine attack frequency
same,migraine attack frequency and number of headache days versus placebo,"400 mg of riboflavin/day for three months, 54 men and women, Schoenen 1998",significantly better than placebo
same,clinical outcome in migraine,"high-dose riboflavin, Sandor 2000",clinical improvement
